# System: 422866-222-R5-J1-PDC complex spheroid viability
# Experiment: Anticancer human tumor 422866-222-R5-J1-PDC patient-derived pancreatic adenocarcinoma cell line growth inhibition [POLQ]
# Settings: for IC50: curve of first compound; for viability, T/C: stronger effect = lower value
# Method in brief: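 PDC + HUVEC + MSC complex spheroids; POLQ inhibitors ± partner drugs; top conc. at/near clinical Cmax, else 10 microM (SN-38 1 microM), half-log dilutions; 37 degrees C, 5% CO2.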
# 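Note: spheroids exposed to compounds for one week before readout.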
# 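Throughout, for viability, T/C: percent of DMSO vehicle wells luminescence so 100% = untreated viability.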
smiles,measurement,setting,value
CNCc1ccc(-c2[nH]c3cc(F)cc4c3c2CCNC4=O)cc1 + Cc1cccc(N(C)C(=O)C2C(O)CCN2c2nc(C)cc(C(F)(F)F)c2C#N)c1,IC50,second compound 0.0316 µM,> 10 µM
same,IC50,second compound 0.1 µM,> 10 µM
same,IC50,second compound 0.316 µM,> 10 µM
same,IC50,second compound 1 µM,> 10 µM
same,IC50,second compound 3.16 µM,> 10 µM
same,IC50,second compound 10 µM,> 10 µM
same,"viability, T/C","second compound 0.0316 µM, first compound 0.0316 µM",105%
same,"viability, T/C","second compound 0.0316 µM, first compound 0.1 µM",88.9%
same,"viability, T/C","second compound 0.0316 µM, first compound 0.316 µM",91.2%
same,"viability, T/C","second compound 0.0316 µM, first compound 1 µM",99.3%
same,"viability, T/C","second compound 0.0316 µM, first compound 3.16 µM",89.6%
same,"viability, T/C","second compound 0.0316 µM, first compound 10 µM",85.5%
same,"viability, T/C","second compound 0.1 µM, first compound 0.0316 µM",94.8%
same,"viability, T/C","second compound 0.1 µM, first compound 0.1 µM",86.7%
same,"viability, T/C","second compound 0.1 µM, first compound 0.316 µM",85.6%
same,"viability, T/C","second compound 0.1 µM, first compound 1 µM",86%
same,"viability, T/C","second compound 0.1 µM, first compound 3.16 µM",101%
same,"viability, T/C","second compound 0.1 µM, first compound 10 µM",108%
same,"viability, T/C","second compound 0.316 µM, first compound 0.0316 µM",88.3%
same,"viability, T/C","second compound 0.316 µM, first compound 0.1 µM",97.1%
same,"viability, T/C","second compound 0.316 µM, first compound 0.316 µM",88%
same,"viability, T/C","second compound 0.316 µM, first compound 1 µM",85%
same,"viability, T/C","second compound 0.316 µM, first compound 3.16 µM",80.9%
same,"viability, T/C","second compound 0.316 µM, first compound 10 µM",89.6%
same,"viability, T/C","second compound 1 µM, first compound 0.0316 µM",103%
same,"viability, T/C","second compound 1 µM, first compound 0.1 µM",85.6%
same,"viability, T/C","second compound 1 µM, first compound 0.316 µM",93.3%
same,"viability, T/C","second compound 1 µM, first compound 1 µM",85.3%
same,"viability, T/C","second compound 1 µM, first compound 3.16 µM",86.7%
same,"viability, T/C","second compound 1 µM, first compound 10 µM",89.7%
same,"viability, T/C","second compound 3.16 µM, first compound 0.0316 µM",96.4%
same,"viability, T/C","second compound 3.16 µM, first compound 0.1 µM",83.9%
same,"viability, T/C","second compound 3.16 µM, first compound 0.316 µM",87.6%
same,"viability, T/C","second compound 3.16 µM, first compound 1 µM",80.8%
same,"viability, T/C","second compound 3.16 µM, first compound 3.16 µM",79.8%
same,"viability, T/C","second compound 3.16 µM, first compound 10 µM",87.3%
same,"viability, T/C","second compound 10 µM, first compound 0.0316 µM",102%
same,"viability, T/C","second compound 10 µM, first compound 0.1 µM",107%
same,"viability, T/C","second compound 10 µM, first compound 0.316 µM",88%
same,"viability, T/C","second compound 10 µM, first compound 1 µM",76.6%
same,"viability, T/C","second compound 10 µM, first compound 3.16 µM",85.8%
same,"viability, T/C","second compound 10 µM, first compound 10 µM",67.1%

# — PubChem BioAssay AID1963844 (Molecular Pharmacology Branch, DTP, NCI, 2024)
